Measurements published in patent publication US6344478B2, “Use of cloprostenol and fluprostenol analogues to treat glaucoma and ocular hypertension” (Alcon Manufacturing, Ltd., priority 1993, dated 2002).

Assays:
[1] = system: pupil diameter of cats; test: Cat pupil diameter response (pupillary constriction in the cat); assay type: in vivo; settings: for ED5 (equivalent response dose, from Area1-5 of pupil diameter versus time curve): area under pupil diameter vs time curve 1-5 hours, estimated from dose response relationship
Experimental: PGF2α analogues are known to contract the iris sphincter of cats and this assay is a generally accepted reference for activity.
Compounds of the present invention were therefore screened for pupillary constriction in the cat. The response is quantitated as Area1-5 values (area under the pupil diameter versus time curve from 1-5 hours), and the equivalent response dose (ED5) is estimated from its dose response relationship.

[2] = Systemic blood pressure, heart rate and blood pH/gas analysis in the rabbit ONH blood flow study; assay type: in vivo, Dutch-Belted rabbits; settings: 0.004% topical q.d. 7 days
Experimental: (§1) Purpose: A two-way crossover study design was used to compare the effects of Compound 1B (0.004%), topically applied, and dosing vehicle on microvascular optic nerve head blood flow, blood pressure, heart rate, and acid-base balance in fifteen acepromazine-tranquilized Dutch-Belted rabbits. Methods: Baseline measurements were taken before treatment and after drug-free washout periods of 14 days. Microvascular optic nerve head (ONH) blood flow was measured with a fundus camera-based Laser Doppler flowmeter (LDf). Thirty microliters o a 0.004% solution of Compound 1B or vehicle was administered in left eyes only q.d. for 7 days. Experimental measurements were made 2 hours after the topical dose was administered on day 8. A sterile 23 gauge intracatheter was inserted into the central ear artery to monitor blood pressure and to take blood samples for blood pH/gas analysis.

[3] = system: microvascular optic nerve head (ONH) blood flow; test: Optic nerve head blood flow after one-week topical treatment in the rabbit (Laser Doppler flowmeter); assay type: in vivo, Dutch-Belted rabbits
Experimental: as §1

[4] = system: IOP in cynomolgus monkey eyes; test: Monkey IOP response in lasered (ocular hypertensive) cynomolgus monkey eyes; assay type: in vivo; settings: lasered right eyes of cynomolgus monkeys; five-dose regimen; estimated from dose response relationship
Experimental: In the study presented below, compound 6 (Table 2, above) was tested for IOP-lowering effect in cynomolgus monkey eyes.
The right eyes of the cynomolgus monkeys used in this study were previously given laser trabeculoplasty to induce ocular hypertension in the lasered eye. Animals had been trained to sit in restraint chairs and conditioned to accept experimental procedures without chemical restraint. IOP was determined with a pneumatonometer after light corneal anesthesia with dilute proparacaine. The test protocol included a five-dose treatment regimen because of the typical delayed response to prostaglandins. The designated test formulations were administered to the lasered right eyes, and the normal left eyes remained untreated, although IOP measurements were taken. Baseline IOP values were determined prior to treatment with the test formulation, and then IOP was determined from 1 to 7 hours after the first dose, 16 hours after the fourth dose, and 1 to 4 hours after the fifth dose.
The equivalent response dose (ED20) is estimated from the dose response relationship to be the dose producing a 20% peak reduction in IOP.

CC(C)OC(=O)CCC/C=C\C[C@@H]1[C@@H](/C=C/[C@@H](O)COc2cccc(Cl)c2)[C@H](O)C[C@@H]1O [Compound 1A, Cloprostenol, isopropyl ester]
ED5 (equivalent response dose, from Area1-5 of pupil diameter versus time curve) [1]: 0.01 µg

CC(C)OC(=O)CCC/C=C\C[C@H]1C(O)CC(O)[C@@H]1/C=C/C(O)COc1cccc(C(F)(F)F)c1 (stereo partly shown) [Compound 1B, Fluprostenol, isopropyl ester]
changes in systemic blood pressure, heart rate, blood gas tensions and pH compared with the vehicle group [2]: small non-significant changes | mean percent decrease in arterial pCO2 tension [2]: 2.59±2.5% | mean percent decrease in arterial pO2 tension [2]: 1.44±2.03% | mean percent decrease in systemic arterial pH [2]: 0.07±0.09% | ONH blood flow, mean±SEM percent increase from baseline ([3]; 0.004% solution, 30 microliters topical q.d. 7 days, measured 2 hours after dose on day 8, acepromazine-tranquilized rabbits): 13.4±3.9% | ONH blood flow compared to the vehicle treated group ([3]; 0.004% topical q.d., p<0.05): significantly increased

CC(C)OC(=O)CCC/C=C\CC1C(CC[C@@H](O)COc2cccc(C(F)(F)F)c2)[C@H](O)C[C@@H]1O (stereo partly drawn) [Compound 6, (5Z)-(9S, 11R, 15R)-17,18,19,20-Tetranor-16-(3-trifluoromethylphenoxy)-9,11,15-trihydroxy-5-prostenoic Acid Isopropyl Ester]
ED5 (equivalent response dose, from Area1-5 of pupil diameter versus time curve) [1]: 0.2 µg | ED20 (dose producing a 20% peak reduction in IOP) [4]: 0.3 µg

CC(C)(C)C(=O)OCCCC/C=C\C[C@@H]1[C@@H](CC[C@@H](O)COc2cccc(Cl)c2)[C@H](O)C[C@@H]1O [Compound 8, (5Z)-(9S, 11R, 15R)-16-(3-Chlorophenoxy)-17,18,19,20-tetranor-9,11,15-trihydroxy-5-prostenol Pivaloate]
ED5 (equivalent response dose, from Area1-5 of pupil diameter versus time curve) [1]: 0.06 µg | potency in cat pupil diameter response compared with the standard compounds ([1]; versus PGF2α isopropyl ester and cloprostenol isopropyl ester): nearly equivalent potency

CCCCC[C@H](O)/C=C/[C@@H]1[C@@H](C/C=C\CCCC(=O)OC(C)C)[C@@H](O)C[C@H]1O [PGF2α Isopropyl Ester, reference compound]
ED5 (equivalent response dose, from Area1-5 of pupil diameter versus time curve) [1]: 0.02 µg | ED20 (dose producing a 20% peak reduction in IOP) [4]: 0.4 µg
